Reference: patent US20230119082A1, “(AZIRIDINYL HYDROXY)-FUNCTIONAL ORGANIC COMPOUNDS” (COVESTRO (NETHERLANDS) B.V., priority 2020, published 2023)

Columns and labels:
[1] = tested on: Bscl2-GFP; assay: in vitro; conditions: mouse; for fold induction at 3 h / fold induction at 24 h: −fold induction Bscl 2
Method: (§1) In the context of the specification, the genotoxicity is measured according to the ToxTracker® assay (Toxys, Leiden, the Netherlands) as described in the Examples.
(§2) The genotoxicity was determined according to the ToxTracker® assay (Toxys, Leiden, the Netherlands) as described below.
(§3) This methodology uses a two-step approach.
(§4) Positive reference treatment with cisplatin (DNA damage) was included in all experiments. Metabolic was evaluated by the addition of S9 liver extract. […] Only GFP expression in single intact cells is determined. Mean GFP fluorescence and cell concentrations in each well are measured, which is used for cytotoxicity assessment. Data were analyzed using ToxPlot software (Toxys, Leiden, the Netherlands).

[2] = tested on: Rtkn-GFP; assay: in vitro; conditions: mouse
Method: as §1, §2, §3, §4

CC1CN1CC(O)COC(=O)NCCCCCCn1c(=O)n(CCCCCCNC(=O)OCC(O)CN2CC2C)c(=O)n(CCCCCCNC(=O)OCC(O)CN2CC2C)c1=O (stereo not drawn) [Example 3]
−fold induction Bscl 2 ([1]; 3 h): 1.5 fold | fold induction at 3 h [1]: 1.2 | fold induction at 24 h [1]: 1.1 | fold induction at 3 h [2]: 1.1 | fold induction at 24 h [2]: 1.2

CC1CN1CC(O)CN(Cc1cccc(CN(CC(O)CN2CC2C)CC(O)CN2CC2C)c1)CC(O)CN1CC1C (stereo not drawn) [Example 2C]
fold induction at 3 h [1]: 1.3 | fold induction at 24 h [1]: 1.3

CC1CN1CC(O)COc1ccc(N(CC(O)CN2CC2C)CC(O)CN2CC2C)cc1 (stereo not drawn) [Example 3C]
fold induction at 3 h [1]: 1.2 | fold induction at 24 h [1]: 1.1 | fold induction at 24 h [2]: 1.7

CC1CN1CC(O)COc1ccc(C(C)(C)c2ccc(OCC(O)CN3CC3C)cc2)cc1 (stereo not drawn) [Example 4C]
fold induction at 3 h [1]: 1.1 | fold induction at 24 h [1]: 1.1
